We go through 17 sequences from patent US20060263802A1 (priority 2003, published 2006).

Type in all cases: binding
The subject of test [1] is human monoclonal antibody CR57.
In test [2] the test system is human monoclonal antibody CRJB.
In test [3] the test system is human monoclonal antibody CRJA.
Test [4] has as its system human monoclonal antibody CRJA. The source holds these as a separate data set.
The test system of test [5] is human monoclonal antibody CRJB. The source holds these as a separate data set.
For test [6], the system named is human monoclonal antibody CR57. This is another data set of the same source.

On to VGYVTTTFKRKHFRP, for which the “Binding of CR57 to linear peptide (PEPSCAN-ELISA signal)” value (shortened to “Binding of CR57 to linear peptide”) in test [1] is recorded as 75. The “Binding of CRJB (10 μg/ml) to looped/cyclic peptide (PEPSCAN-ELISA signal)” value in test [2] is reported as 85. In addition, the “Binding of CRJA to linear peptide (PEPSCAN-ELISA signal)” value (“Binding of CRJA to linear peptide” for short) in test [3] came out at 80. For the same sequence, the “Binding of CRJA (10 μg/ml) to looped/cyclic peptide (PEPSCAN-ELISA signal)” value in test [4] was 100. Further, the “Binding of CRJB to linear peptide (PEPSCAN-ELISA signal)” value (“Binding of CRJB to linear peptide” below) in test [5] came to 113. The “Binding of CR57 (10 μg/ml) to looped/cyclic peptide (PEPSCAN-ELISA signal)” value in test [6] is reported as 117.

As to DYRWLRTVKTTKESL, the “Binding of CR57 to linear peptide” value in test [1] worked out at 54. Besides, in test [2], the “Binding of CRJB (10 μg/ml) to looped/cyclic peptide (PEPSCAN-ELISA signal)” value turned out to be 49. Also, the “Binding of CRJA to linear peptide” value in test [3] amounted to 55. For the same sequence, the “Binding of CRJA (10 μg/ml) to looped/cyclic peptide (PEPSCAN-ELISA signal)” value in test [4] was found to be 45. For the same sequence, in test [5], the “Binding of CRJB to linear peptide” value is reported as 111. The “Binding of CR57 (10 μg/ml) to looped/cyclic peptide (PEPSCAN-ELISA signal)” value in test [6] is 46.

For SSLLQQHMELLESSV, the “Binding of CR57 to linear peptide” value in test [1] was 90. In addition, in test [2], the “Binding of CRJB (10 μg/ml) to looped/cyclic peptide (PEPSCAN-ELISA)” value is given as 76. In test [3], the “Binding of CRJA to linear peptide” value is listed as 106. Moreover, the “Binding of CRJA (10 μg/ml) to looped/cyclic peptide (PEPSCAN-ELISA)” value in test [4] came out at 90. The “Binding of CRJB to linear peptide” value in test [5] stood at 128. Besides, the “Binding of CR57 (10 μg/ml) to looped/cyclic peptide (PEPSCAN-ELISA)” value in test [6] is 98.

On to RRLSHLRKLVPGFGK, for which the “Binding of CR57 to linear peptide” value in test [1] was 92. In addition, the “Binding of CRJB (10 μg/ml) to looped/cyclic peptide (PEPSCAN-ELISA)” value in test [2] is given as 88. For the same sequence, the “Binding of CRJA to linear peptide” value in test [3] worked out at 85. Further, in test [4], the “Binding of CRJA (10 μg/ml) to looped/cyclic peptide (PEPSCAN-ELISA)” value is reported as 96. For the same sequence, the “Binding of CRJB to linear peptide” value in test [5] amounted to 143. Also, the “Binding of CR57 (10 μg/ml) to looped/cyclic peptide (PEPSCAN-ELISA)” value in test [6] turned out to be 111.

LVHPLADPSTVFKDG: the “Binding of CR57 to linear peptide” value in test [1] was determined as 164. The “Binding of CRJB (10 μg/ml) to looped/cyclic peptide (PEPSCAN-ELISA)” value in test [2] is 116. Besides, the “Binding of CRJA to linear peptide” value in test [3] was determined as 106. In addition, the “Binding of CRJA (10 μg/ml) to looped/cyclic peptide (PEPSCAN-ELISA)” value in test [4] was 108. The “Binding of CRJB to linear peptide” value in test [5] stood at 174. Moreover, in test [6], the “Binding of CR57 (10 μg/ml) to looped/cyclic peptide (PEPSCAN-ELISA)” value is recorded as 133.

In the case of ILPSKGCLRVGGRCH, the “Binding of CR57 to linear peptide” value in test [1] stood at 79. The “Binding of CRJB (10 μg/ml) to looped/cyclic peptide (PEPSCAN-ELISA)” value in test [2] is listed as 91. In test [3], the “Binding of CRJA to linear peptide” value turned out to be 112. Further, the “Binding of CRJA (10 μg/ml) to looped/cyclic peptide (PEPSCAN-ELISA)” value in test [4] turned out to be 97. For the same sequence, the “Binding of CRJB to linear peptide” value in test [5] stood at 113. The “Binding of CR57 (10 μg/ml) to looped/cyclic peptide (PEPSCAN-ELISA)” value in test [6] is reported as 105.

Take TWVAMQTSNETKWCP: in test [1], the “Binding of CR57 to linear peptide” value stood at 78. Besides, in test [2], the “Binding of CRJB (10 μg/ml) to looped/cyclic peptide (PEPSCAN-ELISA)” value is listed as 89. Besides, the “Binding of CRJA to linear peptide” value in test [3] was determined as 100. In test [4], the “Binding of CRJA (10 μg/ml) to looped/cyclic peptide (PEPSCAN-ELISA)” value was determined as 84. Further, in test [5], the “Binding of CRJB to linear peptide” value was found to be 118. Moreover, in test [6], the “Binding of CR57 (10 μg/ml) to looped/cyclic peptide (PEPSCAN-ELISA)” value came out at 87.

In the case of KHFRPTPDACRAAYN, in test [1], the “Binding of CR57 to linear peptide” value is listed as 73. The “Binding of CRJB (10 μg/ml) to looped/cyclic peptide (PEPSCAN-ELISA signal)” value in test [2] is on record as 72. Besides, the “Binding of CRJA to linear peptide” value in test [3] was 85. For the same sequence, the “Binding of CRJA (10 μg/ml) to looped/cyclic peptide (PEPSCAN-ELISA signal)” value in test [4] is 41. For the same sequence, in test [5], the “Binding of CRJB to linear peptide” value stood at 112. Also, the “Binding of CR57 (10 μg/ml) to looped/cyclic peptide (PEPSCAN-ELISA signal)” value in test [6] is 70.

Regarding YKSLKGACKLKLCGV, the “Binding of CR57 to linear peptide” value in test [1] is listed as 80. Further, the “Binding of CRJB (10 μg/ml) to looped/cyclic peptide (PEPSCAN-ELISA)” value in test [2] is on record as 82. Besides, in test [3], the “Binding of CRJA to linear peptide” value came to 79. Besides, the “Binding of CRJA (10 μg/ml) to looped/cyclic peptide (PEPSCAN-ELISA)” value in test [4] is reported as 71. For the same sequence, the “Binding of CRJB to linear peptide” value in test [5] is recorded as 112. In addition, the “Binding of CR57 (10 μg/ml) to looped/cyclic peptide (PEPSCAN-ELISA)” value in test [6] came out at 96.

Regarding HNPYPDYRWLRTVKT, the “Binding of CR57 to linear peptide” value in test [1] is given as 86. Besides, in test [2], the “Binding of CRJB (10 μg/ml) to looped/cyclic peptide (PEPSCAN-ELISA signal)” value came out at 69. In test [3], the “Binding of CRJA to linear peptide” value is listed as 98. Also, in test [4], the “Binding of CRJA (10 μg/ml) to looped/cyclic peptide (PEPSCAN-ELISA signal)” value was 65. The “Binding of CRJB to linear peptide” value in test [5] stood at 108. Besides, the “Binding of CR57 (10 μg/ml) to looped/cyclic peptide (PEPSCAN-ELISA signal)” value in test [6] is 85.

On to DFRSDEIEHLVVEEL, for which the “Binding of CR57 to linear peptide” value in test [1] was 99. Besides, the “Binding of CRJB (10 μg/ml) to looped/cyclic peptide (PEPSCAN-ELISA)” value in test [2] was found to be 58. In test [3], the “Binding of CRJA to linear peptide” value stood at 86. Also, the “Binding of CRJA (10 μg/ml) to looped/cyclic peptide (PEPSCAN-ELISA)” value in test [4] turned out to be 93. Further, the “Binding of CRJB to linear peptide” value in test [5] amounted to 103. Moreover, the “Binding of CR57 (10 μg/ml) to looped/cyclic peptide (PEPSCAN-ELISA)” value in test [6] was 127.

YEESLHNPYPDYRWL: in test [1], the “Binding of CR57 to linear peptide” value is listed as 58. Further, the “Binding of CRJB (10 μg/ml) to looped/cyclic peptide (PEPSCAN-ELISA signal)” value in test [2] was 50. Further, in test [3], the “Binding of CRJA to linear peptide” value worked out at 87. Moreover, in test [4], the “Binding of CRJA (10 μg/ml) to looped/cyclic peptide (PEPSCAN-ELISA signal)” value worked out at 84. Moreover, the “Binding of CRJB to linear peptide” value in test [5] worked out at 106. Besides, in test [6], the “Binding of CR57 (10 μg/ml) to looped/cyclic peptide (PEPSCAN-ELISA signal)” value is reported as 98.

For MQSSLLQQHMELLES, the “Binding of CR57 to linear peptide” value in test [1] is recorded as 65. In test [2], the “Binding of CRJB (10 μg/ml) to looped/cyclic peptide (PEPSCAN-ELISA)” value is 90. Besides, the “Binding of CRJA to linear peptide” value in test [3] amounted to 113. Moreover, the “Binding of CRJA (10 μg/ml) to looped/cyclic peptide (PEPSCAN-ELISA)” value in test [4] came out at 99. Further, the “Binding of CRJB to linear peptide” value in test [5] was 113. The “Binding of CR57 (10 μg/ml) to looped/cyclic peptide (PEPSCAN-ELISA)” value in test [6] stood at 72.

Turning to KFPIYTILDKLGPWS, the “Binding of CR57 to linear peptide” value in test [1] was found to be 71. In test [2], the “Binding of CRJB (10 μg/ml) to looped/cyclic peptide (PEPSCAN-ELISA signal)” value is given as 64. In test [3], the “Binding of CRJA to linear peptide” value is listed as 65. Moreover, the “Binding of CRJA (10 μg/ml) to looped/cyclic peptide (PEPSCAN-ELISA signal)” value in test [4] came to 43. For the same sequence, the “Binding of CRJB to linear peptide” value in test [5] turned out to be 97. In addition, in test [6], the “Binding of CR57 (10 μg/ml) to looped/cyclic peptide (PEPSCAN-ELISA signal)” value was 72.

Take WNEILPSKGCLRVGG: the “Binding of CR57 to linear peptide” value in test [1] worked out at 102. Besides, in test [2], the “Binding of CRJB (10 μg/ml) to looped/cyclic peptide (PEPSCAN-ELISA)” value is reported as 98. For the same sequence, in test [3], the “Binding of CRJA to linear peptide” value turned out to be 98. For the same sequence, the “Binding of CRJA (10 μg/ml) to looped/cyclic peptide (PEPSCAN-ELISA)” value in test [4] amounted to 96. The “Binding of CRJB to linear peptide” value in test [5] turned out to be 136. Also, the “Binding of CR57 (10 μg/ml) to looped/cyclic peptide (PEPSCAN-ELISA)” value in test [6] is 112.

Consider DGTWVAMQTSNETKW, for which the “Binding of CR57 to linear peptide” value in test [1] stood at 69. The “Binding of CRJB (10 μg/ml) to looped/cyclic peptide (PEPSCAN-ELISA)” value in test [2] was determined as 58. For the same sequence, the “Binding of CRJA to linear peptide” value in test [3] came to 63. Further, the “Binding of CRJA (10 μg/ml) to looped/cyclic peptide (PEPSCAN-ELISA)” value in test [4] was determined as 45. Besides, the “Binding of CRJB to linear peptide” value in test [5] was 114. For the same sequence, in test [6], the “Binding of CR57 (10 μg/ml) to looped/cyclic peptide (PEPSCAN-ELISA)” value worked out at 56.

Take LSHLRKLVPGFGKAY: in test [1], the “Binding of CR57 to linear peptide” value worked out at 96. In test [2], the “Binding of CRJB (10 μg/ml) to looped/cyclic peptide (PEPSCAN-ELISA)” value was 123. Further, the “Binding of CRJA to linear peptide” value in test [3] is 93. Moreover, the “Binding of CRJA (10 μg/ml) to looped/cyclic peptide (PEPSCAN-ELISA)” value in test [4] is on record as 93. For the same sequence, the “Binding of CRJB to linear peptide” value in test [5] was 139. Moreover, in test [6], the “Binding of CR57 (10 μg/ml) to looped/cyclic peptide (PEPSCAN-ELISA)” value was 121.
